Laboratory results as given in US6610748B1, “Preventives/remedies for skin aging” (Fujisawa Pharmaceutical Co., Ltd., priority 1998, dated 2003).
Entries after “also recorded” stand apart in the source; their conditions may differ. Counter-ions that a name gives are not always drawn. Like-named read-outs stand apart in the source and are kept apart here.

What was measured:
[1] = system: hairless dogs; assay: Skin thickness: thickness of the epidermis (excluding the horny layer) in H-E stained tissue samples of old hairless dogs; type: in vivo, dog; conditions: for Thickness of the epidermis, value after the arrow (after treatment): FK706 0.2% topical once daily for 3 months; for Thickness of the epidermis, value after the arrow (after treatment) / Thickness of the epidermis, value before the arrow (initial): mean±SD
Procedure: (§1) The therapeutic efficacy of neutrophil (leukocyte) elastase inhibitors in “dermal aging” was evaluated in hairless dogs.
(§2) Two adult (old) experimental hairless dogs constructed by cross-breeding of a Mexican hairless dog and a beagle dog were used. Old dogs presenting with age-associated fine “wrinkles” , not observed in young dogs, on the body surface were used as subject animals.
(§3) Each drug was applied in one location (a total of 5 locations) on the back (5×5 cm) of each dog. The drug was applied in a dosing volume of about 4 μL/cm^2 once daily (except on Saturdays, Sundays and holidays) for 3 months.

[2] = system: hairless dogs; assay: Histology of biopsy samples from old hairless dogs (van Gieson's stain, Weigert's stain); type: in vivo; conditions: Dog No. 8807, 3 months
Procedure: The therapeutic efficacy of neutrophil (leukocyte) elastase inhibitors in “dermal aging” was evaluated in hairless dogs. Two adult (old) experimental hairless dogs constructed by cross-breeding of a Mexican hairless dog and a beagle dog were used. Old dogs presenting with age-associated fine “wrinkles” , not observed in young dogs, on the body surface were used as subject animals. Each drug was applied in one location (a total of 5 locations) on the back (5×5 cm) of each dog. The drug was applied in a dosing volume of about 4 μL/cm^2 once daily (except on Saturdays, Sundays and holidays) for 3 months. 2) Histology: Observation of histological changes in biopsy samples by H-E (hematoxylin-eosin) stain (general staining) , van Gieson's stain (staining of collagen fiber) and Weigert's stain (staining of elastin fiber)

[3] = system: hairless dogs; assay: Skin condition (remission of wrinkles) in old hairless dogs, gross observation and video macroscope; type: in vivo, dog; conditions: 0.2% and 0.02% in PEG
Procedure: as §1, §2
5) Polyethylene glycol (PEG) (solvent control) (PEG was used as the solvent for drugs 1˜4)
as §3
1) Skin condition: Gross observation and observation with a video macroscope

[4] = qualitative, by solvent, cited from earlier work
[5] = gross observation, dog No. 8807 (10 yr old, male), about 4 μL/cm2 on the back once daily for 3 months
[6] = gross observation, dog No. 8808 (10 yr old, female), about 4 μL/cm2 on the back once daily for 3 months
[7] = observation with a video macroscope, dog No. 8807, once daily for 3 months
[8] = observation with a video macroscope, dog No. 8808, once daily for 3 months

Molecule	Thickness of the epidermis, value after the arrow (after treatment) ([1]; Dog No. 8807)	Thickness of the epidermis, value before the arrow (initial) ([1]; Dog No. 8807, location treated with FK706 0.2%)	Thickness of the epidermis, value after the arrow (after treatment) ([1]; Dog No. 8808)	Thickness of the epidermis, value before the arrow (initial) ([1]; Dog No. 8808, location treated with FK706 0.2%)	Change in thickness of the epidermis ([1]; location treated with FK706 0.2%, p<0.05 in both Dog 8807 and Dog 8808)	Histological finding, Weigert's stain (elastin fiber) ([2]; topical)	Histological finding, van Gieson's stain (collagen fiber) ([2]; FK706 0.2% topical)	Order of efficacy in the elimination or remission of wrinkles [3, 5]	Order of efficacy in the elimination or remission of wrinkles [3, 6]	Order of efficacy in the elimination or remission of wrinkles [3, 7]	Order of efficacy in the elimination or remission of wrinkles [3, 8]	Solubility ([4]; disodium salt)	Solubility ([4]; dipotassium salt)
CC(C)C(NC(=O)[C@@H]1CCCN1C(=O)[C@@H](NC(=O)c1ccc(C(=O)NCC(=O)O)cc1)C(C)C)C(=O)C(F)(F)F (mixture of isomers) [FK706, 3 (RS)-[[4-(carboxymethylaminocarbonyl)phenyl-carbonyl]-L-valyl-L-prolyl]amino-1,1,1-trifluoro-4-methyl-2-oxopentane]	26.8±5.9 μm	17.0±1.9 μm	42.0±9.0 μm	24.6±3.6 μm	increased significantly	Growth of elastin fibrils (suspected to be oxytalan fiber which is said to disappear as increasing age) was found across the boundary between the epidermis and dermis	Neogenesis of a thin layer of collagen fiber was found across the boundary between the epidermis and dermis	FK706·0.1%>FK706·0.02%>FR134043·0.2%=FR134043·0.02%	FK706·0.2%>FK706·0.02%>FR134043·0.2%=FR134043·0.02%	FK706·0.2%>FK706·0.02%>FR134043·0.2%>FR134043·0.02%	FK706·0.2%=FK706·0.02%>FR134043·0.2%=FR134043 0.02%		
C/C=C1\NC(=O)C2NC(=O)C(NC(=O)C(C)C)CCCNC(=O)Nc3cc(OS(=O)(=O)O)c(OS(=O)(=O)O)cc3C[C@@H](C(=O)NC(C(C)C)C(=O)OC2C)N(C)C(=O)C(Cc2ccccc2)N2C(=O)[C@H](CC[C@H]2O)NC1=O (some centres unmarked) [FR134043, WS7622A disulfate ester disodium salt]								FK706·0.1%>FK706·0.02%>FR134043·0.2%=FR134043·0.02%	FK706·0.2%>FK706·0.02%>FR134043·0.2%=FR134043·0.02%	FK706·0.2%>FK706·0.02%>FR134043·0.2%>FR134043·0.02%	FK706·0.2%=FK706·0.02%>FR134043·0.2%=FR134043 0.02%	Soluble: water, methanol; also recorded: Insoluble: chloroform, n-hexane	
WS7622A disulfate ester dipotassium salt													Soluble: water, methanol; also recorded: Insoluble: chloroform, n-hexane
